Measured values published in ChEMBL document CHEMBL6127100, “Plant based steroidal and triterpenoid sapogenins: Chemistry on diosgenin and biological aspects” (Eur J Med Chem, 2024).

Legend:
Assay type in all cases: functional, cell-based
HepG2 = assay: Antiproliferative activity against human HepG2 cells assessed as reduction in cell viability measured for 24 hrs by MTT assay; details: HepG2, 24 h
HeLa = assay: Antiproliferative activity against human HeLa cells assessed as reduction in cell viability measured for 24 hrs by MTT assay
A549 = assay: Antiproliferative activity against human A549 cells assessed as reduction in cells assessed as reduction in cell growth incubated for 72 hrs by MTT assay; details: A549, 72 h
A-431 = assay: Antiproliferative activity against human A-431 cells assessed as reduction in cells assessed as reduction in cell growth incubated for 72 hrs by MTT assay; details: A-431, 72 h
NCI-H1975 = assay: Antiproliferative activity against human NCI-H1975 cells assessed as reduction in cells assessed as reduction in cell growth incubated for 72 hrs by MTT assay; details: NCI-H1975, 72 h
HCT-116 = assay: Antiproliferative activity against human HCT-116 cells assessed as reduction in cells assessed as reduction in cell growth incubated for 72 hrs by MTT assay; details: HCT-116, 72 h
ASPC1 = assay: Antiproliferative activity against human ASPC1 cells assessed as reduction in cells assessed as reduction in cell growth incubated for 72 hrs by MTT assay; details: ASPC1, 72 h

| IC50 (HepG2) [µM] | IC50 (HeLa) [µM] | IC50 (A549) [µM] | IC50 (A-431) [µM] | IC50 (NCI-H1975) [µM] | IC50 (HCT-116) [µM] | IC50 (ASPC1) [µM] | Structure (SMILES) |
| --- | --- | --- | --- | --- | --- | --- | --- |
| 12.2 | 12.4 | – | – | – | – | – | C[C@H](CC[C@H]1O[C@H]2C[C@H]3[C@@H]4CC=C5C[C@@H](OC6=C(Cl)C(=O)c7ncccc7C6=O)CC[C@]5(C)[C@H]4CC[C@]3(C)[C@H]2[C@@H]1C)CO[Si](C)(C)C(C)(C)C |
| – | – | 10.5 | 10.4 | 11.2 | 3.94 | 5.54 | C[C@@H]1CC[C@@]2(OC1)O[C@H]1C[C@H]3[C@@H]4CC=C5C[C@@H]([N+]6(C)CCCC6)CC[C@]5(C)[C@H]4CC[C@]3(C)[C@H]1[C@@H]2C |
| 3.85 | 3.7 | – | – | – | – | – | C[C@@H](CO)CC[C@H]1O[C@H]2C[C@H]3[C@@H]4CC=C5C[C@@H](OC6=C(Cl)C(=O)c7ccccc7C6=O)CC[C@]5(C)[C@H]4CC[C@]3(C)[C@H]2[C@@H]1C |
| – | 6.36 | – | – | – | – | – | C[C@@H](CO)CC[C@H]1O[C@H]2C[C@H]3[C@@H]4CC=C5C[C@@H](OC6=C(Cl)C(=O)c7ncccc7C6=O)CC[C@]5(C)[C@H]4CC[C@]3(C)[C@H]2[C@@H]1C |
| – | – | 6.63 | 3.52 | 4.05 | – | 4.18 | C[C@@H]1CC[C@@]2(OC1)O[C@H]1C[C@H]3[C@@H]4CC=C5C[C@@H](OC(=O)CCCC[N+](C)(C)c6ccccc6)CC[C@]5(C)[C@H]4CC[C@]3(C)[C@H]1[C@@H]2C |
| – | – | 2.42 | 3.87 | 6.39 | 1.03 | < 5 | CCCC[N+](C)(CCCC)[C@H]1CC[C@@]2(C)C(=CC[C@H]3[C@@H]4C[C@@H]5O[C@]6(CC[C@@H](C)CO6)[C@@H](C)[C@@H]5[C@@]4(C)CC[C@@H]32)C1 |
| – | – | 5.35 | 3.26 | – | 11.5 | 17.8 | C[C@@H]1CC[C@@]2(OC1)O[C@H]1C[C@H]3[C@@H]4CC=C5C[C@@H]([N+](C)(CCO)CCO)CC[C@]5(C)[C@H]4CC[C@]3(C)[C@H]1[C@@H]2C |
| – | – | 10.7 | 4.33 | 9.17 | 3.23 | 4.78 | C[C@@H]1CC[C@@]2(OC1)O[C@H]1C[C@H]3[C@@H]4CC=C5C[C@@H]([N+](C)(CCCCN6C(=O)c7ccccc7C6=O)CCCCN6C(=O)c7ccccc7C6=O)CC[C@]5(C)[C@H]4CC[C@]3(C)[C@H]1[C@@H]2C |
| – | – | 6.64 | 4.01 | 5.96 | 5 | 4.06 | C=C[N+](C)(C=C)[C@H]1CC[C@@]2(C)C(=CC[C@H]3[C@@H]4C[C@@H]5O[C@]6(CC[C@@H](C)CO6)[C@@H](C)[C@@H]5[C@@]4(C)CC[C@@H]32)C1 |
| – | – | 5.83 | 5.88 | 5.45 | – | 8.48 | C[C@@H]1CC[C@@]2(OC1)O[C@H]1C[C@H]3[C@@H]4CC=C5C[C@@H](OC(=O)CCCC[N+]6(C)CCOCC6)CC[C@]5(C)[C@H]4CC[C@]3(C)[C@H]1[C@@H]2C |
| 3.55 | 9.69 | – | – | – | – | – | Cc1ccc2c(n1)C(=O)C(Cl)=C(O[C@H]1CC[C@@]3(C)C(=CC[C@H]4[C@@H]5C[C@@H]6O[C@H](CC[C@@H](C)CO[Si](C)(C)C(C)(C)C)[C@@H](C)[C@@H]6[C@@]5(C)CC[C@@H]43)C1)C2=O |
| – | – | 1.84 | 2.55 | 0.78 | – | 1.23 | C=CC[N+](CC=C)(CC=C)CCCCC(=O)O[C@H]1CC[C@@]2(C)C(=CC[C@H]3[C@@H]4C[C@@H]5O[C@]6(CC[C@@H](C)CO6)[C@@H](C)[C@@H]5[C@@]4(C)CC[C@@H]32)C1 |
| 1.76 | 6.27 | – | – | – | – | – | C[C@H](CC[C@H]1O[C@H]2C[C@H]3[C@@H]4CC=C5C[C@@H](OC6=C(Cl)C(=O)c7ccccc7C6=O)CC[C@]5(C)[C@H]4CC[C@]3(C)[C@H]2[C@@H]1C)COC1=C(Cl)C(=O)c2ccccc2C1=O |
| 5.36 | 15.6 | – | – | – | – | – | Cc1ccc2c(n1)C(=O)C(Cl)=C(O[C@H]1CC[C@@]3(C)C(=CC[C@H]4[C@@H]5C[C@@H]6O[C@H](CC[C@@H](C)CO)[C@@H](C)[C@@H]6[C@@]5(C)CC[C@@H]43)C1)C2=O |
| – | – | – | 8.25 | 20.6 | 9.74 | 19.3 | C[C@@H]1CC[C@@]2(OC1)O[C@H]1C[C@H]3[C@@H]4CC=C5C[C@@H]([N+](C)(C)CC#N)CC[C@]5(C)[C@H]4CC[C@]3(C)[C@H]1[C@@H]2C |
| – | – | 5.3 | 1.85 | 1.51 | – | 7.12 | C[C@@H]1CC[C@@]2(OC1)O[C@H]1C[C@H]3[C@@H]4CC=C5C[C@@H](OC(=O)CCCC[N+](C)(C)Cc6ccccc6)CC[C@]5(C)[C@H]4CC[C@]3(C)[C@H]1[C@@H]2C |
| 9.18 | 14.5 | – | – | – | – | – | Cc1ccc2c(c1)C(=O)C(Cl)=C(OC[C@H](C)CC[C@H]1O[C@H]3C[C@H]4[C@@H]5CC=C6C[C@@H](OC7=C(Cl)C(=O)c8cc(C)ccc8C7=O)CC[C@]6(C)[C@H]5CC[C@]4(C)[C@H]3[C@@H]1C)C2=O |
| 3.52 | 9.69 | – | – | – | – | – | C[C@H](CC[C@H]1O[C@H]2C[C@H]3[C@@H]4CC=C5C[C@@H](OC6=C(Cl)C(=O)c7ccccc7C6=O)CC[C@]5(C)[C@H]4CC[C@]3(C)[C@H]2[C@@H]1C)CO[Si](C)(C)C(C)(C)C |
| – | – | 4.68 | 4.14 | 1.68 | – | 6.07 | C[C@@H]1CC[C@@]2(OC1)O[C@H]1C[C@H]3[C@@H]4CC=C5C[C@@H](OC(=O)CCCC[N+]6(CCO)CCCCC6)CC[C@]5(C)[C@H]4CC[C@]3(C)[C@H]1[C@@H]2C |
| – | – | 12.7 | 14.5 | 5.92 | 4.71 | 4.41 | C#CC[N+](C)(CC#C)[C@H]1CC[C@@]2(C)C(=CC[C@H]3[C@@H]4C[C@@H]5O[C@]6(CC[C@@H](C)CO6)[C@@H](C)[C@@H]5[C@@]4(C)CC[C@@H]32)C1 |
| – | – | 4.07 | 4.14 | 1.68 | – | 4.46 | C[C@@H]1CC[C@@]2(OC1)O[C@H]1C[C@H]3[C@@H]4CC=C5C[C@@H](OC(=O)CCCC[N+]67CCC(CC6)C(O)C7)CC[C@]5(C)[C@H]4CC[C@]3(C)[C@H]1[C@@H]2C (some centres not stated) |
| – | – | 2.81 | 3.11 | 3.68 | – | 2.77 | CCCC[N+](C)(C)CCCCC(=O)O[C@H]1CC[C@@]2(C)C(=CC[C@H]3[C@@H]4C[C@@H]5O[C@]6(CC[C@@H](C)CO6)[C@@H](C)[C@@H]5[C@@]4(C)CC[C@@H]32)C1 |
| – | – | 12.6 | 6.21 | 3.36 | – | 11.1 | C[C@@H]1CC[C@@]2(OC1)O[C@H]1C[C@H]3[C@@H]4CC=C5C[C@@H](OC(=O)CCCC[N+]6(CCO)CCOCC6)CC[C@]5(C)[C@H]4CC[C@]3(C)[C@H]1[C@@H]2C |
| – | – | 5.83 | 3.03 | 5.08 | – | 2.83 | C[C@@H]1CC[C@@]2(OC1)O[C@H]1C[C@H]3[C@@H]4CC=C5C[C@@H](OC(=O)CCCC[N+]6(C)CCCCC6)CC[C@]5(C)[C@H]4CC[C@]3(C)[C@H]1[C@@H]2C |
| – | – | 4.47 | 4.05 | 3.44 | – | 2.15 | C[C@@H]1CC[C@@]2(OC1)O[C@H]1C[C@H]3[C@@H]4CC=C5C[C@@H](OC(=O)CCCC[N+]6(C)CCCC6)CC[C@]5(C)[C@H]4CC[C@]3(C)[C@H]1[C@@H]2C |
| – | – | 6.33 | 2.85 | 5.09 | > 1 | 55.3 | COCC[N+](C)(CCOC)[C@H]1CC[C@@]2(C)C(=CC[C@H]3[C@@H]4C[C@@H]5O[C@]6(CC[C@@H](C)CO6)[C@@H](C)[C@@H]5[C@@]4(C)CC[C@@H]32)C1 |
| – | – | 9.86 | < 2.5 | 5.73 | 0.34 | < 5 | C[C@@H]1CC[C@@]2(OC1)O[C@H]1C[C@H]3[C@@H]4CC=C5C[C@@H]([N+](C)(C/C=C/c6ccccc6)C/C=C/c6ccccc6)CC[C@]5(C)[C@H]4CC[C@]3(C)[C@H]1[C@@H]2C |
| – | – | 2.69 | 4.71 | 5.32 | 1.12 | 4.07 | C[C@@H]1CC[C@@]2(OC1)O[C@H]1C[C@H]3[C@@H]4CC=C5C[C@@H]([N+](C)(CC6CC6)CC6CC6)CC[C@]5(C)[C@H]4CC[C@]3(C)[C@H]1[C@@H]2C |
| – | – | 2.52 | 3.46 | 3.23 | – | 6.56 | CC[N+](CC)(CC)CCCCC(=O)O[C@H]1CC[C@@]2(C)C(=CC[C@H]3[C@@H]4C[C@@H]5O[C@]6(CC[C@@H](C)CO6)[C@@H](C)[C@@H]5[C@@]4(C)CC[C@@H]32)C1 |

| Structure (SMILES) | IC50 (HepG2) [µM] | IC50 (HeLa) [µM] | IC50 (A549) [µM] | IC50 (A-431) [µM] | IC50 (NCI-H1975) [µM] | IC50 (HCT-116) [µM] | IC50 (ASPC1) [µM] |
| --- | --- | --- | --- | --- | --- | --- | --- |
| C[C@@H]1CC[C@@]2(OC1)O[C@H]1C[C@H]3[C@@H]4CC=C5C[C@@H]([N+](C)(C)C)CC[C@]5(C)[C@H]4CC[C@]3(C)[C@H]1[C@@H]2C | – | – | 15.2 | 6.38 | 19 | 9.67 | 9.44 |
